In patent publication US20010038822A1, “Melanotropin analogs for potential radiopharmaceuticals for diagnosis and treatment of melanoma” (priority 1998, published 2001):
Read-outs that look alike come from different tables or passages of the source. Values belong to the compound of their own block, whether it stands above or below them. Positions of bridges follow the written chain, without caps; N, C: chain ends. Non-standard residues stand in square brackets, D forms with d. Residues, ends and D or L forms follow the SMILES beside them.

What was measured:
[1] = Stabilities of tracer level complexes under challenge (10 mM cysteine / 0.05M phosphate); type: physicochemical
Method: ^99mTcO4^− was obtained from a ^99Mo/^99mTc generator produced by Mallinckrodt, Inc. ^188Re was obtained from a ^188W/^188Re generator produced by the University of Missouri research reactor. Radiolabeled peptides were prepared by substitution onto either ^99mTc- or ^188Re-glucoheptonate. For ^188Re complexes, 500 μL of generator eluant was added to a tube containing 50 mg Na-glucoheptonate and 10 mg SnCl2.2H2O dissolved in 200 μL N2-purged 5% disodium-EDTA and heated at 70-80° C. for 0.5 hour. 50 μL of a 1 mg/mL peptide solution was then added, the pH was adjusted to 7-8 with 0.5 N NaOH, and the mixture was allowed to incubate for 90 minutes. at 70-80° C. Syntheses of ^99mTc-labeled peptides differed only in that they were carried out at 25° C. using a 10-fold lower concentration of SnCl2.2H2O.

[2] = biological target: T1, α-MSH receptor on B16-F1 murine melanoma cells (Mus musculus, UniProt Q01727); experiment: Competitive receptor binding assay with ^125I-[Nle^4, D-Phe^7]-α-MSH
T1 construct: endogenous in cells; host or cells: B16-F1 murine melanoma cells
Method: Quantitative receptor binding assays were carried out following a previously described method (Siegrist W., 1988; Sahm, U. G., 1994). Cells were seeded at a density of 5×10^5 cells per well in 24 well tissue culture plates and exposed to varying concentrations of peptides on 0.5 mL of binding media (25 mM HEPES/NaOH pH=7.4, 0.2% BSA, 0.3 mM 1,10-phenanthroline, and approximately 100,000 CPM of ^125I-[Nle^4, D-Phe^7]-α-MSH) (36) at 4° C. for 8 hours. The cells were rinsed with PBS, lysed with 1 M NaOH and counted in a 1275 minigamma gamma counter from LKB Wallac.

[3] = tested on: B16F1 murine melanoma cells; type: cell-based
Method: Peptide bioactivity was determined by measuring melanin released into cell culture media in an in vitro assay using B16F1 murine melanoma cells (Siegrist, W., 1986). Cells were incubated with various concentrations of peptide and assayed for melanin production by measuring the absorbance of the culture media at 405 nm. Absorbance values were compared to a standard curve obtained using synthetic melanin from Sigma. The standard curve was linear over the experimental range of absorbance values.

T1 sequence (Q01727 whole entry): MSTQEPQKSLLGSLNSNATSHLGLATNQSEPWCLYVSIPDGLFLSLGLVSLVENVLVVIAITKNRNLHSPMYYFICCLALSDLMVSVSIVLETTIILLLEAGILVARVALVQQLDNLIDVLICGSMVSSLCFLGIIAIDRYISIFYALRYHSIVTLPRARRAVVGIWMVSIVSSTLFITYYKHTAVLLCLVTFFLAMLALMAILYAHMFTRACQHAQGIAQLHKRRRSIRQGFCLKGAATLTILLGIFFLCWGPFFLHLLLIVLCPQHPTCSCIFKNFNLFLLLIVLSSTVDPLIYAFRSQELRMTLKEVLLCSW

Stability of tracer level complex ([1]; 10 mM Cysteine challenge, 4 hrs): 48.9%
Stability of tracer level complex ([1]; 10 mM Cysteine challenge, 24 hrs): 34.0%
Stability of tracer level complex ([1]; 0.05M Phosphate challenge, 4 hrs): 90.3%
Stability of tracer level complex ([1]; 0.05M Phosphate challenge, 24 hrs): 66.4%
half-life ([1]; 0.05M phosphate with 10 mM cysteine, in competition with 10 mM free cysteine, read-out: t½ (converted)): ~4 h
Compound: CC(=O)N[C@@H](CS)C(=O)N[C@@H](CCC(=O)O)C(=O)N[C@@H](Cc1c[nH]cn1)C(=O)N[C@H](Cc1ccccc1)C(=O)N[C@@H](CCCNC(=N)N)C(=O)N[C@@H](Cc1c[nH]c2ccccc12)C(=O)N[C@@H](CS)C(=O)N[C@@H](CCCCN)C(=O)N1CCC[C@H]1C(=O)N[C@H](C(N)=O)C(C)C (188Re complex, metal not drawn) [^188ReMSH] (Ac-CEH[dF]RWCKPV-NH2)

Ki ([2]; B16-F1 murine melanoma cells, read-out: Ki): 680 pM
EC50 [3]: 26 pM
Compound: CC(=O)N[C@H]1CSSC[C@@H](C(=O)N[C@@H](CCCCN)C(=O)N2CCC[C@H]2C(=O)N[C@H](C(N)=O)C(C)C)NC(=O)[C@H](Cc2c[nH]c3ccccc23)NC(=O)[C@H](CCCNC(=N)N)NC(=O)[C@@H](Cc2ccccc2)NC(=O)[C@H](Cc2c[nH]cn2)NC(=O)[C@H](CCC(=O)O)NC1=O [APOMSH, NA-Cys-Glu-His-D-Phe-Arg-Trp-Cys-Lys-Pro-Val-NH2, reference compound] (Ac-CEH[dF]RWCKPV-NH2; disulfide 1-7)

receptor binding affinity higher than that of ReMSH [2]: approximately 25 fold
Ki ([2]; read-out: receptor binding affinity): 2900 pM
EC50 ([3]; B16-F1 murine melanoma cells, read-out: EC50 melanin synthesis): 35 pM
Compound: rhenium complex of NAc-Cys-Cys-Glu-His-D-Phe-Arg-Trp-Cys-Lys-Pro-Val-NH2, APOMSH analog with additional N-terminal Cys [ReCCMSH]
ability to stimulate melanin production ([3]; compared with APOMSH): almost identical to APOMSH
